Test results as given in BindingDB's records for doi:10.1021/jm960495w (Hokkaido University, 1997).
pIC50: −log10 of the molar value.

Experiment: Percentage inhibition of N-methyl-D-aspartic acid (NMDA) receptor produced by oocytes

## CCC(N)[C@@H]1C[C@@]1(C(=O)N(CC)CC)c1ccccc1 (stereo partly drawn) [(1S,2R)-2-(1-Amino-propyl)-1-phenyl-cyclopropanecarboxylic acid diethylamide]
  pIC50: 4.29
